We go through 1 compound from patent US20120142656A1, “BUCCAL APPLICATION SYSTEM COMPRISING 17A-ESTRADIOL” (BAYER PHARMA AKTIENGESELLSCHAFT, priority 2009, published 2012).

Format in all cases: in vivo
Series [1] concerns postmenopausal or ovarectomized women. Briefly: double-blind, randomized crossover clinical study: hot flashes (patient diaries, skin temperature). Conditions: 0.4 mg buccal tablet. The procedure:
Hot flashes were recorded before the beginning of treatment and on one of the last 3 days of treatment week 4. This was carried out according to subjective criteria (number and severity of the events) using patient diaries and objectively by continuous measurement of the skin temperature.

Series [2] has the same test system. As to the kind of experiment: endometrial thickness by transvaginal ultrasound in clinical study. The settings on record: 0.4 mg buccal tablet. The procedure:
Hot flashes were recorded before the beginning of treatment and on one of the last 3 days of treatment week 4. This was carried out according to subjective criteria (number and severity of the events) using patient diaries and objectively by continuous measurement of the skin temperature. In addition, the measurement of the endometrial thickness was carried out by transvaginal ultrasound investigations.

Series [3] shares this test system. Briefly: tolerability: monitoring of undesired events and laboratory investigations in clinical study. The settings on record: 0.4 mg buccal tablet, versus placebo group. The procedure:
Hot flashes were recorded before the beginning of treatment and on one of the last 3 days of treatment week 4. This was carried out according to subjective criteria (number and severity of the events) using patient diaries and objectively by continuous measurement of the skin temperature. Moreover, the tolerability of the treatment regime was determined by monitoring of undesired events and standardized laboratory investigations.

On to `C[C@]12CC[C@@H]3c4ccc(O)cc4CC[C@H]3[C@@H]1CC[C@H]2O` [17α-estradiol], for which the “number of hot flashes per 24 h” value in series [1] (after treatment for 4 weeks, before treatment 11.9±2.1, patient diaries) amounted to 3.1±1.8 per 24 h. Further, the “effect on number and intensity of hot flashes” value in series [1] (drug group versus placebo) is “rapid reduction of the number and intensity of hot flashes”. Also, in series [2], the “endometrial thickness measured by transvaginal ultrasound” value is “not significantly altered”. Besides, the side-effect profile result in series [3] is reported as “comparable”.
